Measurements from PubChem BioAssay AID256 (DTP/NCI, 2004).
“And” between values parts separate entries of the source, which are not always exact repeats. Identical values can stand only once. Toxic doses and inconclusive results are not listed.

System: CD2F1 mice, L1210 leukemia ip, survival T/C
Assay: NCI In Vivo Anticancer Drug Screen. Data for tumor model L1210 Leukemia (intraperitoneal) in CD2F1 (CDF1) mice
Settings: higher = longer survival
Summary of the method: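 Each value reflects a quotient of treated over vehicle control outcomes in mice with a transplanted tumor.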

[1] = endpoint: mean survival time, dose: 100.0 mg/kg/injection, schedule: Q01DX001 (ip), vehicle: saline with Tween-80
[2] = endpoint: mean survival time, dose: 200.0 mg/kg/injection, schedule: Q01DX001 (ip), vehicle: saline with Tween-80
[3] = endpoint: mean survival time, dose: 50.0 mg/kg/injection, schedule: Q01DX009 (ip), vehicle: saline with Tween-80
[4] = endpoint: mean survival time, dose: 100.0 mg/kg/injection, schedule: Q01DX009 (ip), vehicle: saline with Tween-80
[5] = endpoint: mean survival time, dose: 200.0 mg/kg/injection, schedule: Q01DX009 (ip), vehicle: saline with Tween-80
[6] = endpoint: mean survival time, dose: 100.0 mg/kg/injection, schedule: Q04DX003 (ip), vehicle: saline with Tween-80
[7] = endpoint: mean survival time, dose: 200.0 mg/kg/injection, schedule: Q04DX003 (ip), vehicle: saline with Tween-80
[8] = endpoint: mean survival time, dose: 400.0 mg/kg/injection, schedule: Q04DX003 (ip), vehicle: saline with Tween-80
[9] = endpoint: mean survival time, dose: 100.0 mg/kg/injection, schedule: Q01DX001 (ip), vehicle: saline
[10] = endpoint: mean survival time, dose: 200.0 mg/kg/injection, schedule: Q01DX001 (ip), vehicle: saline
[11] = endpoint: mean survival time, dose: 400.0 mg/kg/injection, schedule: Q01DX001 (ip), vehicle: saline

## CCNC1=C(C)C(=O)c2c(c(COC(N)=O)c3n2CC(NC(C)=O)C3O)C1=O (configuration not stated)
endpoint: mean survival time, dose: 33.0 mg/kg/injection, schedule: Q01DX001 (ip), vehicle: carboxymethylcellulose (CMC)
  T/C: 98 % of control
endpoint: mean survival time, dose: 50.0 mg/kg/injection, schedule: Q01DX001 (ip), vehicle: carboxymethylcellulose (CMC)
  T/C: 98 % of control
endpoint: mean survival time, dose: 75.0 mg/kg/injection, schedule: Q01DX001 (ip), vehicle: carboxymethylcellulose (CMC)
  T/C: 102 % of control

## O=C1c2cccc([N+](=O)[O-])c2C(=O)c2c1cccc2[N+](=O)[O-]
[1]
  T/C: 103 % of control
[2]
  T/C: 102 % of control
endpoint: mean survival time, dose: 400.0 mg/kg/injection, schedule: Q01DX001 (ip), vehicle: saline with Tween-80
  T/C: 96 % of control

## Cc1ccc(S(=O)(=O)N/N=C2/C=C3C/C(=N\NS(=O)(=O)c4ccc(C)cc4)C=C3C2)cc1
[3]
  T/C: 93 % of control
[4]
  T/C: 89 % of control
[5]
  T/C: 89 % of control

## O=S(=O)(Nc1cc(S(=O)(=O)c2ccccc2)c(O)c2ccccc12)c1ccccc1
[6]
  T/C: 96 % of control
[7]
  T/C: 86 % of control
[8]
  T/C: 91 % of control

## O=C(SCCNCCNC1CC2CCC1C2)c1ccccc1 (configuration not stated)
endpoint: mean survival time, dose: 9.4 mg/kg/injection, schedule: Q01DX009 (ip), vehicle: saline with Tween-80
  T/C: 98 % of control
endpoint: mean survival time, dose: 9.4 mg/kg/injection, schedule: Q04DX003 (ip), vehicle: saline with Tween-80
  T/C: 95 % of control
endpoint: mean survival time, dose: 18.8 mg/kg/injection, schedule: Q01DX001 (ip), vehicle: saline
  T/C: 97 % of control
endpoint: mean survival time, dose: 18.8 mg/kg/injection, schedule: Q01DX009 (ip), vehicle: saline with Tween-80
  T/C: 97 % of control
endpoint: mean survival time, dose: 18.8 mg/kg/injection, schedule: Q04DX003 (ip), vehicle: saline with Tween-80
  T/C: 92 % of control
endpoint: mean survival time, dose: 37.5 mg/kg/injection, schedule: Q01DX001 (ip), vehicle: saline
  T/C: 100 % of control
endpoint: mean survival time, dose: 37.5 mg/kg/injection, schedule: Q01DX009 (ip), vehicle: saline with Tween-80
  T/C: 97 % of control
endpoint: mean survival time, dose: 37.5 mg/kg/injection, schedule: Q04DX003 (ip), vehicle: saline with Tween-80
  T/C: 95 % of control

## COc1ccc(-c2c(C(=O)NCCc3ccccc3)[nH]c(-c3ccccc3)c2-c2ccccc2)cc1
endpoint: mean survival time, dose: 75.0 mg/kg/injection, schedule: Q01DX001 (ip), vehicle: saline
  T/C: 95 % of control
endpoint: mean survival time, dose: 150.0 mg/kg/injection, schedule: Q01DX001 (ip), vehicle: saline
  T/C: 98 % of control

## Brc1ccc(N=C=C(c2ccccc2)c2ccccc2)cc1
[3]
  T/C: 98 % of control
[4]
  T/C: 96 % of control
[6]
  T/C: 92 % of control
[5]
  T/C: 102 % of control
[7]
  T/C: 101 % of control

## O=c1[nH]c(=S)[nH]c2ncn(C3OC(CO)C(O)C3O)c12 (configuration not stated)
[9]
  T/C: 102 % of control
[10]
  T/C: 100 % of control
[11]
  T/C: 102 % of control

## N#CC(Cl)(Cl)C(N)=O
endpoint: mean survival time, dose: 1.56 mg/kg/injection, schedule: Q04DX002 (ip), vehicle: saline
  T/C: 102 % of control
endpoint: mean survival time, dose: 3.13 mg/kg/injection, schedule: Q04DX002 (ip), vehicle: saline
  T/C: 92 % of control
endpoint: mean survival time, dose: 6.25 mg/kg/injection, schedule: Q04DX002 (ip), vehicle: saline
  T/C: 98 % of control

## CC(CC(=O)O)[Se][Se]C(C)CC(=O)O (configuration not stated)
[1]
  T/C: 95 % of control
[2]
  T/C: 103 % of control

## Cc1c2ccn(O)cc2c(C)c2c1nc1ccccc12
endpoint: mean survival time, dose: 25.0 mg/kg/injection, schedule: Q04DX003 (ip), vehicle: water
  T/C: 110 % of control
endpoint: mean survival time, dose: 50.0 mg/kg/injection, schedule: Q04DX003 (ip), vehicle: water
  T/C: 103 % of control
endpoint: mean survival time, dose: 100.0 mg/kg/injection, schedule: Q04DX003 (ip), vehicle: water
  T/C: 110 % of control
endpoint: mean survival time, dose: 200.0 mg/kg/injection, schedule: Q04DX003 (ip), vehicle: water
  T/C: 105 % of control
endpoint: mean survival time, dose: 400.0 mg/kg/injection, schedule: Q04DX003 (ip), vehicle: water
  T/C: 106 % of control

## CC(NC=O)(C(=O)O)c1ccccc1 (configuration not stated)
endpoint: mean survival time, dose: 50.0 mg/kg/injection, schedule: Q01DX001 (ip), vehicle: other
  T/C: 102 % of control
endpoint: mean survival time, dose: 100.0 mg/kg/injection, schedule: Q01DX001 (ip), vehicle: other
  T/C: 97 % of control and 90 % of control
endpoint: mean survival time, dose: 200.0 mg/kg/injection, schedule: Q01DX001 (ip), vehicle: other
  T/C: 100 % of control and 102 % of control
endpoint: mean survival time, dose: 400.0 mg/kg/injection, schedule: Q01DX001 (ip), vehicle: other
  T/C: 97 % of control

## COc1cc(CO)ccc1Oc1ccc(C)cc1
[9]
  T/C: 104 % of control
endpoint: mean survival time, dose: 100.0 mg/kg/injection, schedule: Q04DX003 (ip), vehicle: saline
  T/C: 100 % of control
[10]
  T/C: 107 % of control
endpoint: mean survival time, dose: 200.0 mg/kg/injection, schedule: Q04DX003 (ip), vehicle: saline
  T/C: 100 % of control
[11]
  T/C: 100 % of control
endpoint: mean survival time, dose: 400.0 mg/kg/injection, schedule: Q04DX003 (ip), vehicle: saline
  T/C: 101 % of control

## N#Cc1cccc(CN2CCCNCC2)c1
endpoint: mean survival time, dose: 12.5 mg/kg/injection, schedule: Q01DX009 (ip), vehicle: water
  T/C: 98 % of control
endpoint: mean survival time, dose: 25.0 mg/kg/injection, schedule: Q01DX009 (ip), vehicle: water
  T/C: 100 % of control
endpoint: mean survival time, dose: 50.0 mg/kg/injection, schedule: Q01DX009 (ip), vehicle: water
  T/C: 96 % of control
endpoint: mean survival time, dose: 100.0 mg/kg/injection, schedule: Q01DX009 (ip), vehicle: water
  T/C: 105 % of control

## COc1cc(NC(=O)CC(C)=O)c(OC)cc1Cl
[4]
  T/C: 96 % of control
[5]
  T/C: 94 % of control
endpoint: mean survival time, dose: 400.0 mg/kg/injection, schedule: Q01DX009 (ip), vehicle: saline with Tween-80
  T/C: 91 % of control

## Cc1c(-c2ccc(-c3ccccc3F)cc2)nc2ccc(F)cc2c1C(=O)O
endpoint: median survival time, dose: 5.2 mg/kg/injection, schedule: Q01DX009 (ip), vehicle: water
  T/C: 153 % of control
endpoint: median survival time, dose: 6.25 mg/kg/injection, schedule: Q01DX009 (ip), vehicle: water
  T/C: 165 % of control
endpoint: median survival time, dose: 8.6 mg/kg/injection, schedule: Q01DX009 (ip), vehicle: water
  T/C: 166 % of control
endpoint: median survival time, dose: 12.5 mg/kg/injection, schedule: Q01DX009 (ip), vehicle: water
  T/C: 168 % of control
endpoint: median survival time, dose: 14.4 mg/kg/injection, schedule: Q01DX009 (ip), vehicle: water
  T/C: 171 % of control
endpoint: median survival time, dose: 24.0 mg/kg/injection, schedule: Q01DX009 (ip), vehicle: water
  T/C: 172 % of control
endpoint: median survival time, dose: 25.0 mg/kg/injection, schedule: Q01DX009 (ip), vehicle: water
  T/C: 179 % of control
endpoint: median survival time, dose: 40.0 mg/kg/injection, schedule: Q01DX009 (ip), vehicle: water
  T/C: 175 % of control
endpoint: median survival time, dose: 50.0 mg/kg/injection, schedule: Q01DX009 (ip), vehicle: water
  T/C: 108 % of control
endpoint: median survival time, dose: 66.7 mg/kg/injection, schedule: Q01DX009 (ip), vehicle: water
  T/C: 116 % of control
endpoint: median survival time, dose: 100.0 mg/kg/injection, schedule: Q01DX009 (ip), vehicle: water
  T/C: 93 % of control

## COC(=O)c1ccccc1Cn1c(C)cnc1C
endpoint: mean survival time, dose: 12.5 mg/kg/injection, schedule: Q01DX009 (ip), vehicle: saline
  T/C: 101 % of control
endpoint: mean survival time, dose: 25.0 mg/kg/injection, schedule: Q01DX009 (ip), vehicle: saline
  T/C: 93 % of control
endpoint: mean survival time, dose: 50.0 mg/kg/injection, schedule: Q01DX009 (ip), vehicle: saline
  T/C: 101 % of control and 105 % of control

## O=S(=O)(SC(Cl)(Cl)Cl)c1ccc(Cl)cc1
endpoint: mean survival time, dose: 12.5 mg/kg/injection, schedule: Q01DX009 (ip), vehicle: saline sonified
  T/C: 103 % of control
endpoint: mean survival time, dose: 25.0 mg/kg/injection, schedule: Q01DX009 (ip), vehicle: saline sonified
  T/C: 102 % of control
endpoint: mean survival time, dose: 25.0 mg/kg/injection, schedule: Q01DX009 (ip), vehicle: saline with Tween-80
  T/C: 103 % of control
endpoint: mean survival time, dose: 50.0 mg/kg/injection, schedule: Q01DX009 (ip), vehicle: saline sonified
  T/C: 102 % of control
[3]
  T/C: 98 % of control
[1]
  T/C: 91 % of control
[4]
  T/C: 98 % of control

## O=C(C(c1ccccc1)C(F)(F)F)N1CCCC1 (configuration not stated)
[6]
  T/C: 97 % of control
[7]
  T/C: 100 % of control
[8]
  T/C: 97 % of control

## COC1OC(COC(=O)c2ccccc2)C(N(C)C(C)=O)C1OC(=O)c1ccccc1 (configuration not stated)
endpoint: mean survival time, dose: 75.0 mg/kg/injection, schedule: Q01DX001 (ip), vehicle: other
  T/C: 97 % of control
endpoint: mean survival time, dose: 150.0 mg/kg/injection, schedule: Q01DX001 (ip), vehicle: other
  T/C: 103 % of control
endpoint: mean survival time, dose: 300.0 mg/kg/injection, schedule: Q01DX001 (ip), vehicle: other
  T/C: 91 % of control

## CCCCCCCCCCCCCCCCCC[N+](CCO)(CCO)Cc1ccc(C[N+](CCO)(CCO)CCCCCCCCCCCCCCCCCC)cc1
endpoint: mean survival time, dose: 12.5 mg/kg/injection, schedule: Q04DX002 (ip), vehicle: saline with Tween-80
  T/C: 101 % of control
endpoint: mean survival time, dose: 25.0 mg/kg/injection, schedule: Q04DX002 (ip), vehicle: saline with Tween-80
  T/C: 101 % of control
endpoint: mean survival time, dose: 50.0 mg/kg/injection, schedule: Q04DX002 (ip), vehicle: saline with Tween-80
  T/C: 89 % of control
